Data reported in paper PMC10233829 (ACS Omega, 2023).
Converted amounts (≈) assume the structure as drawn. Where two headings read alike, the source gives them in different places.

Tests used:
[1] = test system: S. epidermidis 4341; test: MIC, twofold microdilution, clinical strain; format: cell-based; settings: Staphylococcus epidermidis, 18 h
[2] = test system: P. aeruginosa 659; test: MIC, twofold microdilution, clinical strain; format: cell-based; settings: Pseudomonas aeruginosa, 18 h
[3] = test system: E. coli 520; test: MIC, twofold microdilution, clinical strain; format: cell-based; settings: Escherichia coli, 18 h
[4] = test system: E. cloacae 8; test: MIC, twofold microdilution, clinical strain; format: cell-based, Escherichia cloacae; settings: Enterobacter cloacae, 8; clinical strain, 18 h
[5] = test system: E. coli 600; test: MIC, twofold microdilution, clinical strain; format: cell-based, Escherichia coli; settings: Escherichia coli, 600, 18 h
[6] = test system: PC3 cells; test: MTT assay, cytotoxic activity; format: cell-based, human; settings: Homo sapiens, PC-3, 72 h, MTT, 72 h
Experimental: Metastatic prostate cancer (PC3) and human immortal keratinocyte (HaCaT) cell lines were purchased from the American Type Culture Collection (ATCC, Rockville, MD, USA) and cultured in MEM (minimal essential medium, Thermo Sci, USA), RPMI 1640 (Roswell Park Memorial Institute, Biowest SAS, France), and DMEM (Dulbecco’s Modified Eagle’s Medium, Biowest SAS, France). Cells were seeded in 6 mL medium in a tissue culture flask (50 mL) in a 37 °C/5% CO2 humidified incubator. […] MTT analysis was performed according to a previous study.[59] Untreated cells were used as controls. Cell absorbance results were inserted into the formula for the relative MTT level (%). It allows to calculate the viability of cells under the influence of the tested compounds. Cell viability was expressed as the percentage of MTT reduction in cells treated with tested compounds compared to the control sample. The relative MTT level was calculated using the formula [100%] = A/B × 100% where A—the test sample absorbance and B—the control sample absorbance.

[7] = test system: M. tuberculosis Spec 210; test: microbe, parasite or virus in culture; format: cell-based, Mycobacterium tuberculosis; settings: M. tuberculosis Spec. 210
[8] = test system: P. aeruginosa ATCC 15442; test: MIC, twofold microdilution, standard strain; format: cell-based, Pseudomonas aeruginosa; settings: Pseudomonas aeruginosa, ATCC15442; standard strain, 18 h
[9] = test system: K. pneumoniae 510; test: MIC, twofold microdilution, clinical strain; format: cell-based, Klebsiella pneumoniae; settings: Klebsiella pneumoniae, 510; clinical strain, 18 h
[10] = test system: E. coli ATCC 25922; test: MIC, twofold microdilution, standard strain; format: cell-based, Escherichia coli; settings: Escherichia coli, ATCC25922; standard strain, 18 h
[11] = test system: S. epidermidis 5253; test: MIC, twofold microdilution, clinical strain; format: cell-based, Staphylococcus epidermidis; settings: for MIC S. epidermidis 5253: 18 h; for MIC: Staphylococcus epidermidis, 5253, 18 h
[12] = test system: M. tuberculosis H37Rv; test: Tuberculostatic activity, Microplate Alamar Blue Assay (MIC); format: cell-based, Mycobacterium tuberculosis; settings: Mycobacterium tuberculosis, H37RV; MABA; read-out: MIC M. tuberculosis H37Rv
[13] = test system: P. aeruginosa 37; test: MIC, twofold microdilution, clinical strain; format: cell-based; settings: Pseudomonas aeruginosa, 18 h
[14] = test system: S. aureus ATCC 6538; test: MIC, twofold microdilution, standard strain; format: cell-based, Staphylococcus aureus; settings: Staphylococcus aureus, ATCC6538; standard strain, 18 h
[15] = test system: S. aureus 5595; test: MIC, twofold microdilution, clinical strain; format: cell-based; settings: Staphylococcus aureus, 18 h
[16] = test system: S. aureus T5595; test: MIC, twofold microdilution, clinical strain; format: cell-based, Staphylococcus aureus; settings: for MIC: Staphylococcus aureus, T5595, 18 h
[17] = test system: S. epidermidis KR4243/1; test: MIC, twofold microdilution, clinical strain; format: cell-based; settings: Staphylococcus epidermidis, 18 h
[18] = test system: S. aureus T5591; test: MIC, twofold microdilution, clinical strain; format: cell-based, Staphylococcus aureus; settings: for MIC: Staphylococcus aureus, T5591, 18 h
[19] = test system: Staphylococci (standard strains); test: MIC, standard Gram-positive strains as a panel; format: cell-based, S. aureus, S. epidermidis; settings: read-out: MIC toward standard Staphylococci (range over strains)
[20] = test system: S. aureus NCTC 4163; test: MIC, twofold microdilution, standard strain; format: cell-based; settings: Staphylococcus aureus, NCTC4163, 18 h
[21] = test system: S. aureus 180; test: MIC, twofold microdilution, clinical strain; format: cell-based; settings: Staphylococcus aureus, 18 h
[22] = test system: clinical bacterial strains; test: MIC, clinical isolates as groups of strains; format: cell-based; settings: for fold more effective than CP: S. aureus 180 and 5595; for MIC: clinical strains, read-out: MIC against selected E. coli and E. cloacae strains
[23] = test system: K. pneumoniae 28; test: MIC, twofold microdilution, clinical strain; format: cell-based; settings: Klebsiella pneumoniae, 18 h
[24] = test system: E. coli 951; test: MIC, twofold microdilution, clinical strain; format: cell-based; settings: Escherichia coli, 18 h
[25] = MTT assay, cytotoxic activity; format: cell-based; settings: human, HaCaT cells (immortal keratinocytes); MTT, 72 h, normal cell line; read-out: IC50 HaCaT
Experimental: Cells were seeded in 6 mL medium in a tissue culture flask (50 mL) in a 37 °C/5% CO2 humidified incubator. […] MTT analysis was performed according to a previous study.[59] Untreated cells were used as controls. Cell absorbance results were inserted into the formula for the relative MTT level (%). It allows to calculate the viability of cells under the influence of the tested compounds. Cell viability was expressed as the percentage of MTT reduction in cells treated with tested compounds compared to the control sample. The relative MTT level was calculated using the formula [100%] = A/B × 100% where A—the test sample absorbance and B—the control sample absorbance.

[26] = test system: S. aureus ATCC 25923; test: MIC, twofold microdilution, standard strain; format: cell-based; settings: Staphylococcus aureus, ATCC25923, 18 h
[27] = test system: S. epidermidis ATCC 12228; test: MIC, twofold microdilution, standard strain; format: cell-based; settings: Staphylococcus epidermidis, ATCC12228, 18 h
[28] = test system: S. pasteuri KR 4358; test: MIC, twofold microdilution, clinical strain; format: cell-based; settings: Staphylococcus pasteuri, KR4358, 18 h
[29] = test system: S. epidermidis ATCC 35984; test: MIC, twofold microdilution, standard strain; format: cell-based; settings: Staphylococcus epidermidis, ATCC35984, 18 h
[30] = test system: S. aureus ATCC 29213; test: MIC, twofold microdilution, standard strain; format: cell-based; settings: Staphylococcus aureus, ATCC29213, 18 h
[31] = test system: M. tuberculosis Spec. 192; test: Tuberculostatic activity, Microplate Alamar Blue Assay (MIC); format: cell-based; settings: Mycobacterium tuberculosis, MABA, read-out: MIC M. tuberculosis Spec. 192 (sensitive to tuberculostatics)
[32] = test system: P. aeruginosa ATCC 15442 and E. coli ATCC 25922; test: MIC, standard Gram-negative rods as a panel; format: cell-based; settings: P. aeruginosa ATCC 15442, E. coli ATCC 25922; read-out: MIC against standard Gram-negative rods (range over strains)
[33] = target: S. aureus DNA gyrase (Staphylococcus aureus, UniProt P0A0K8+P20831); test: biochemical; settings: supercoiling of relaxed pBR322
Experimental: The enzymatic assay was carried using commercial topoisomerases type II as previously described by Alt et al.[55] with some modifications.
Briefly, 1 U of the enzyme (gyrase or topo IV, Inspiralis. Norwich, UK) isolated from S. aureus converts […] of relaxed pBR322 DNA to the supercoiled form (gyrase) or decatenates 200 ng of kinetoplast DNA (topo IV). […] The reactions were terminated by adding an equal volume of STEB buffer (40% sucrose, 100 mM Tris–HCl pH 8, 10 mM EDTA, and 0.5 mg/mL bromophenol blue), followed by extraction with 1 volume of chloroform/isoamyl alcohol (24:1). The samples were vortexed and centrifuged, and 20 μL of the aqueous phase of each sample was loaded onto a 1% agarose gel and left for 30 min prior to electrophoresis to allow diffusion of salt. […] Gels were stained with ethidium bromide and visualized under UV light in a transilluminator (ChemiDoc MP, Bio Rad).

[34] = target: T1, S. aureus topoisomerase IV (Staphylococcus aureus, UniProt P0C1S7+P0C1U9); test: Topoisomerase IV decatenation assay; format: biochemical; settings: decatenation of kinetoplast DNA; read-out: IC50 S. aureus topoisomerase IV (converted)
T1 construct: purchased Inspiralis, Norwich, UK
T1 sequence (P0C1U9 whole entry): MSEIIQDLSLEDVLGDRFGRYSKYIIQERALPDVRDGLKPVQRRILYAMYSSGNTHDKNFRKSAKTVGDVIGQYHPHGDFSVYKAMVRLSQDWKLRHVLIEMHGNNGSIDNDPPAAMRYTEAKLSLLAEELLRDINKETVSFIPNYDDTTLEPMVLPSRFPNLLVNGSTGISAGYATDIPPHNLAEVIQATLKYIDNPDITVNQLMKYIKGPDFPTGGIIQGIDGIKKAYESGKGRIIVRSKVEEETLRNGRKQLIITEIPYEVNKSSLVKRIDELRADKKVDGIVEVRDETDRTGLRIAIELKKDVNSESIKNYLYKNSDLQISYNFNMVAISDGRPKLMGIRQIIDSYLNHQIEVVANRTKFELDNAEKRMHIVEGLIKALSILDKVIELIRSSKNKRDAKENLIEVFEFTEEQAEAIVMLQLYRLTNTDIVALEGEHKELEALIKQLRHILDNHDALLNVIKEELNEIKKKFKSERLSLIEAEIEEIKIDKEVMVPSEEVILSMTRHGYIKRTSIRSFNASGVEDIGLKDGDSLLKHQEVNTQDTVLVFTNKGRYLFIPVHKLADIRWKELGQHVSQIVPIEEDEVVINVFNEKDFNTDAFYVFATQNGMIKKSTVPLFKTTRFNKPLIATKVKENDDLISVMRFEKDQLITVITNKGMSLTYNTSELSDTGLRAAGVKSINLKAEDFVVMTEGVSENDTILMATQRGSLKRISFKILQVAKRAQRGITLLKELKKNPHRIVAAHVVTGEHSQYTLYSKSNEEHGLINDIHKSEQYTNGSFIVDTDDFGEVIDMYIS
T1 sequence (P0C1S7 whole entry): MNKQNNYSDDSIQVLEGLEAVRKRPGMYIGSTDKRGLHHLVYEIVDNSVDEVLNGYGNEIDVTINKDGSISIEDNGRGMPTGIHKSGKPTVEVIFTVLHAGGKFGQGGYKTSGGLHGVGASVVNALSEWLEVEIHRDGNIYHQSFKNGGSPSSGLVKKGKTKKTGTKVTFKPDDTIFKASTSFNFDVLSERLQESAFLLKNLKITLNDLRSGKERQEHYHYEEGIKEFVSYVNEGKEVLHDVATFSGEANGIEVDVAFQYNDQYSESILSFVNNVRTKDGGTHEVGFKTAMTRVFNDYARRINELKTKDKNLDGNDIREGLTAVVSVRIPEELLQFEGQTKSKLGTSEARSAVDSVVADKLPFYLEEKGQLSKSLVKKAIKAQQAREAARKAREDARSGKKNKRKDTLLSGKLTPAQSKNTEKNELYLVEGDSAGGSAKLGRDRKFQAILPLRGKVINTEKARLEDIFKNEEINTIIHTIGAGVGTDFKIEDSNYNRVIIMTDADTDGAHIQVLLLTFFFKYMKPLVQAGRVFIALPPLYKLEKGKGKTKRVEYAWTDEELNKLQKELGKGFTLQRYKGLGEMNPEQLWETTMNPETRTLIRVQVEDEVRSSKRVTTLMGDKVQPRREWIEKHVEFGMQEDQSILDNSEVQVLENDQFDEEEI

S. aureus DNA gyrase, sequence (P0A0K8 whole entry): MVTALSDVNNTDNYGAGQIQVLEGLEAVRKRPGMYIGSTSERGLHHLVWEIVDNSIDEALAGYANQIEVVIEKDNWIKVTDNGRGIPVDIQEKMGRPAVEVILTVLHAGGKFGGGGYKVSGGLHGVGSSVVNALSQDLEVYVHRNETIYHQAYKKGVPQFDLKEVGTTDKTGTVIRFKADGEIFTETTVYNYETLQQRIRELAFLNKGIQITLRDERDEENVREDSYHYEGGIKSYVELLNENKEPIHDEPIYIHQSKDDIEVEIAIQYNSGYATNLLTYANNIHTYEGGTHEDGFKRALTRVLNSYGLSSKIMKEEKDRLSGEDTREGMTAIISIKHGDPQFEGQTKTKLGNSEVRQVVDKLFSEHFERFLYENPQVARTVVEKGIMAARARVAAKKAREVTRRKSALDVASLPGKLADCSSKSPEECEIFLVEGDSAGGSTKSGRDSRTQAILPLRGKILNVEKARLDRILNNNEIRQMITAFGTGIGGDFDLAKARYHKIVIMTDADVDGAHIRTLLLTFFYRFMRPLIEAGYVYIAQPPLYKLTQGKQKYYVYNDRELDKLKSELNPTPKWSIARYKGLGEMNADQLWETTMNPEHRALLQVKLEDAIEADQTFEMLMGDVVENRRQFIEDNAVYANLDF
S. aureus DNA gyrase, sequence (P20831 whole entry): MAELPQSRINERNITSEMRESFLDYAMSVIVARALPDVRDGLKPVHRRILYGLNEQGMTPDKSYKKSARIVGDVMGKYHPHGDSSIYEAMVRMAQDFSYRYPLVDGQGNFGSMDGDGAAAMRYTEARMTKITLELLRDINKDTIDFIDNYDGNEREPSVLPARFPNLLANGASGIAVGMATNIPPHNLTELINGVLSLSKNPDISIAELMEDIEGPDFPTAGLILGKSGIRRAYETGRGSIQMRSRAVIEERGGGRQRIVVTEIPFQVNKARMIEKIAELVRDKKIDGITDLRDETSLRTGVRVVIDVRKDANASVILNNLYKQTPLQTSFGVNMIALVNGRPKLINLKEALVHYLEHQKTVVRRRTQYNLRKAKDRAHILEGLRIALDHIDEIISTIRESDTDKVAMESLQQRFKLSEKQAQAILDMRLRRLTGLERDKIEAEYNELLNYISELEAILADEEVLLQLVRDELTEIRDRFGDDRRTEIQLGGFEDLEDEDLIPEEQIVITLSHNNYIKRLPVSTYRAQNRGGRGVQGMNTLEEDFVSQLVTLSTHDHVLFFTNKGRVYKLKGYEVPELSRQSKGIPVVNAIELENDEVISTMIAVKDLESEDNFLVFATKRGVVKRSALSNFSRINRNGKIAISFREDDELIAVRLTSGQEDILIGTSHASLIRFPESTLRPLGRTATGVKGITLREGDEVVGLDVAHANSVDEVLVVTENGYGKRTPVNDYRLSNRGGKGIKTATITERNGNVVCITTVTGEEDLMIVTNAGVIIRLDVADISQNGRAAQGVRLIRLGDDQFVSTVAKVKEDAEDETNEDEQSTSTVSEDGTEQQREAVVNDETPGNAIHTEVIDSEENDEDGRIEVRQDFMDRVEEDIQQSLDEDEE

## O=C(O)c1cn(C2CC2)c2cc(N3CCN(C(=O)CCCl)CC3)c(F)cc2c1=O [Compound 4, 7-[4-(3-Chloropropionyl)-piperazin-1-yl]-1-cyclopropyl-6-fluoro-4-oxo-1,4-dihydro-quinoline-3-carboxylic Acid]
[1]
  MIC: 6.4 µg/mL (≈ 15.2 µM)
[2]
  MIC: > 25.6 µg/mL
[3]
  MIC: 0.8 µg/mL (≈ 1.9 µM)
[4]
  MIC: 0.8 µg/mL (≈ 1.9 µM)
[5]
  MIC: 0.8 µg/mL (≈ 1.9 µM)
[6]
  IC50: 51.6 ± 8.1 µM
[7]
  fold more effective than the reference tuberculostatics: 8–32 fold
[8]
  MIC: 12.8 µg/mL (≈ 30.3 µM)
[9]
  MIC: > 25.6 µg/mL
[10]
  MIC: 3.2 µg/mL (≈ 7.59 µM)
[11]
  MIC S. epidermidis 5253: 25.6 µg/mL (≈ 60.7 µM)
  MIC: 12.8 to 25.6 µg/mL (≈ 30.3 to 60.7 µM)
[12]
  MIC: 2 µg/mL (≈ 4.74 µM)
[13]
  MIC: > 25.6 µg/mL
[14]
  MIC: 0.2 µg/mL (≈ 0.474 µM)
[15]
  MIC: 0.2 µg/mL (≈ 0.474 µM)
[16]
  MIC: 0.4 µg/mL (≈ 0.948 µM)
[17]
  MIC: 0.2 µg/mL (≈ 0.474 µM)
[18]
  MIC: 0.4 µg/mL (≈ 0.948 µM)
[19]; standard Gram-positive strains of Table 1
  MIC: 0.1 to 0.8 µg/mL (≈ 0.237 to 1.9 µM)
[20]
  MIC: 0.2 µg/mL (≈ 0.474 µM)
[21]
  MIC: 0.2 µg/mL (≈ 0.474 µM)
[22]
  fold more effective than CP: 2.5 fold
  MIC: 0.1 to 0.8 µg/mL (≈ 0.237 to 1.9 µM)
[22]; S. aureus T5595 and T5591
  share of the reference (CP) activity: 62.5%
[23]
  MIC: > 25.6 µg/mL
[24]
  MIC: 25.6 µg/mL (≈ 60.7 µM)
[25]
  IC50 at 72 h: > 100 µM
[26]
  MIC: 0.4 µg/mL (≈ 0.948 µM)
[27]
  MIC: 0.2 µg/mL (≈ 0.474 µM)
[28]
  MIC: 0.2 µg/mL (≈ 0.474 µM)
[29]
  MIC: 0.2 µg/mL (≈ 0.474 µM)
[30]
  MIC: 0.2 µg/mL (≈ 0.474 µM)
[31]
  MIC: 1 µg/mL (≈ 2.37 µM)

## O=C(O)c1cn(C2CC2)c2cc(N3CCN(C(=O)CCCCCl)CC3)c(F)cc2c1=O [Compound 6, 7-[4-(5-Chloropentanoyl)-piperazin-1-yl]-1-cyclopropyl-6-fluoro-4-oxo-1,4-dihydro-quinoline-3-carboxylic Acid]
[32]
  MIC: ≤ 1 µg/mL
[1]
  MIC: 6.4 µg/mL (≈ 14.2 µM)
[2]
  MIC: 12.8 µg/mL (≈ 28.5 µM)
[3]
  MIC: 0.4 µg/mL (≈ 0.889 µM)
[4]
  MIC: 0.8 µg/mL (≈ 1.78 µM)
[5]
  MIC: 0.4 µg/mL (≈ 0.889 µM)
[33]
  IC50: 12 µM
[6]
  IC50: 108 ± 11 µM
[8]
  MIC: 1.6 µg/mL (≈ 3.56 µM)
[9]
  MIC: > 25.6 µg/mL
[10]
  MIC: 0.2 µg/mL (≈ 0.445 µM)
[11]
  MIC S. epidermidis 5253: 12.8 µg/mL (≈ 28.5 µM)
  MIC: 12.8 to 25.6 µg/mL (≈ 28.5 to 56.9 µM)
[12]
  MIC: 0.5 µg/mL (≈ 1.11 µM)
[13]
  MIC: 6.4 µg/mL (≈ 14.2 µM)
[14]
  MIC: 0.2 µg/mL (≈ 0.445 µM)
[15]
  MIC: 0.1 µg/mL (≈ 0.222 µM)
[16]; 18 h
  MIC S. aureus T5595: 0.2 µg/mL (≈ 0.445 µM)
[16]
  MIC: 0.1 to 0.2 µg/mL (≈ 0.222 to 0.445 µM)
[17]
  MIC: 0.2 µg/mL (≈ 0.445 µM)
[18]; 18 h
  MIC S. aureus T5591: 0.2 µg/mL (≈ 0.445 µM)
[18]
  MIC: 0.1 to 0.2 µg/mL (≈ 0.222 to 0.445 µM)
[34]
  IC50: 17.8 µM
[19]
  MIC: 0.1 to 0.8 µg/mL (≈ 0.222 to 1.78 µM)
[20]
  MIC: 0.2 µg/mL (≈ 0.445 µM)
[21]
  MIC: 0.1 µg/mL (≈ 0.222 µM)
[22]
  fold more effective than CP: 5 fold
  MIC: 0.1 to 0.8 µg/mL (≈ 0.222 to 1.78 µM)
[22]; S. aureus T5595 and T5591
  times more powerful than CP: 1.25–2.5 times
[23]
  MIC: > 25.6 µg/mL
[24]
  MIC: 12.8 µg/mL (≈ 28.5 µM)
[25]
  IC50 at 72 h: 19.7 ± 2.8 µM
[26]
  MIC: 0.2 µg/mL (≈ 0.445 µM)
[27]
  MIC: 0.2 µg/mL (≈ 0.445 µM)
[28]
  MIC: 0.2 µg/mL (≈ 0.445 µM)
[29]
  MIC: 0.2 µg/mL (≈ 0.445 µM)
[30]
  MIC: 0.2 µg/mL (≈ 0.445 µM)
[31]
  MIC: 0.5 µg/mL (≈ 1.11 µM)
